According to patent US20250163043A1 (TRANSTHERA SCIENCES (NANJING), INC., priority 2021, published 2025):

What was measured:
Format in all cases: biochemical
CDK2/CycA2 = CDK2/CycA2 (Homo sapiens, UniProt P24941); assay: ADP-Glo kinase assay on CDK enzymatic activity, CDK2/CycA2; settings: 10 concentrations from 10 μM, 4-fold, 60 min room temperature
Source text: (§1) Test samples: the compounds of the present invention, having structures shown above.
(§2) ADP-Glo Kinase Assay (ADP-Glo kinase kit), DMSO (dimethyl sulfoxide), CDK9/CycT1 (cyclin-dependent kinase 9/cyclin T1), CDK tide (cyclin-dependent kinase substrate peptide fragments), CDK1/CycE1 (cyclin-dependent kinase 1/cyclin E1), CDK2/CycA2 (cyclin-dependent kinase 2/cyclin A2), CDK3/CycE1 (cyclin-dependent kinase 3/cyclin E1), CDK4/CycD3 (cyclin-dependent kinase 4/cyclin D3), CDK5/p25NCK (cyclin-dependent kinase 5/p25), and AZD 4573.
(§3) A 384-well white plate, a 96-well plate, a microplate oscillator, a centrifuge, and a microplate reader.
(§4) The compounds were dissolved in DMSO and diluted 4-fold in the 96-well plate to obtain stock solutions with 10 concentration gradients, and added into a 384-well plate system to obtain a series of 10 concentration gradients of compound solutions with final concentrations of 10 μM starting and 4-fold gradient decreasing. 1 μM AZD4573 was used as compound positive control (PC) and 0.5% DMSO as solvent vehicle control (VC), ten duplicated wells each for PC and VC.
(§5) 1 μL of compound solution and 2 μL of 2× kinase solution were transferred to each well, and the plate was centrifuged at 1000 g for 30 s and left at room temperature for 10 min. A mixture of 2× substrate and ATP was prepared in 1× kinase buffer. The reaction was started after adding 2 μL of substrate and ATP into the plate. The plate was centrifuged at 1000 g for 30 s. The assay plate was closed and left at room temperature for 60 min. The reaction system was added with 4 μL of ADP Glo reagent, centrifuged at 1000 rpm for 1 min, and incubated at room temperature for 40 min. The reaction system was added with 8 μL of kinase assay reagent, centrifuged at 1000 rpm for 1 min and incubated at room temperature for 40 min. The […] was read on Biotek.
(§6) The inhibition rate was calculated according to the following formula: […]
(§7) Lumcmpd: compound fluorescence reading; Lumpositive: average value of the fluorescence reading of positive compound control; Lumvehicle: average value of the fluorescence reading of solvent vehicle control.
(§8) IC50 values were fitted using GraphPad 7.0 based on inhibition rates of compounds at different concentrations.

CDK3/CycE1 = CDK3/CycE1 (Homo sapiens, UniProt Q00526); assay: ADP-Glo kinase assay on CDK enzymatic activity, CDK3/CycE1; settings: 10 concentrations from 10 μM, 4-fold, 60 min room temperature
Source text: as §1, §2, §3, §4, §5, §6, §7, §8

CDK5/p25NCK = CDK5/p25NCK (Homo sapiens, UniProt Q00535); assay: ADP-Glo kinase assay on CDK enzymatic activity, CDK5/p25NCK; settings: 10 concentrations from 10 μM, 4-fold, 60 min room temperature
Source text: as §1, §2, §3, §4, §5, §6, §7, §8

CDK9/CycT1 = CDK9/CycT1 (Homo sapiens, UniProt P50750); assay: ADP-Glo kinase assay on CDK enzymatic activity, CDK9/CycT1; settings: 10 concentrations from 10 μM, 4-fold, 60 min room temperature
In short: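 Ten-point, 4-fold dilution series from 10 μM final was preincubated 10 min with kinase, then 60 min at room temperature with CDKtide substrate and ATP. ADP-Glo luminescence gave inhibition relative to 1 μM AZD4573 and 0.5% DMSO controls; IC50 from curve fitting.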

CDK1/CycE1 = CDK1/CycE1 (Homo sapiens, UniProt P06493); assay: ADP-Glo kinase assay on CDK enzymatic activity, CDK1/CycE1; settings: ADP-Glo; 10 concentrations from 10 μM, 4-fold; 60 min room temperature; read-out: CDK1/CycE1/nM (IC50)
Description: as §1, §3, §4, §5, §6, §7, §8

Sequence of CDK9/CycT1 (P50750 whole entry): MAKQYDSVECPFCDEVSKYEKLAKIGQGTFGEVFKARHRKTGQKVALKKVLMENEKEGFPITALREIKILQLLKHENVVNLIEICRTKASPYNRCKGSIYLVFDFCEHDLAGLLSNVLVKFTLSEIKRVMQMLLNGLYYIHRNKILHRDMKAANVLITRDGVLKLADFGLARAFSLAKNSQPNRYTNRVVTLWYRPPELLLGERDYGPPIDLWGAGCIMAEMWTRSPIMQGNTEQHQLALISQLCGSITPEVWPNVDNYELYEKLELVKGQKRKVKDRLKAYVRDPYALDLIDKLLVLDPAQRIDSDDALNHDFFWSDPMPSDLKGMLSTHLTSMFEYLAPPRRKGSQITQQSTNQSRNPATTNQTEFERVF
Sequence of CDK9/CycT1 (O60563 whole entry partner): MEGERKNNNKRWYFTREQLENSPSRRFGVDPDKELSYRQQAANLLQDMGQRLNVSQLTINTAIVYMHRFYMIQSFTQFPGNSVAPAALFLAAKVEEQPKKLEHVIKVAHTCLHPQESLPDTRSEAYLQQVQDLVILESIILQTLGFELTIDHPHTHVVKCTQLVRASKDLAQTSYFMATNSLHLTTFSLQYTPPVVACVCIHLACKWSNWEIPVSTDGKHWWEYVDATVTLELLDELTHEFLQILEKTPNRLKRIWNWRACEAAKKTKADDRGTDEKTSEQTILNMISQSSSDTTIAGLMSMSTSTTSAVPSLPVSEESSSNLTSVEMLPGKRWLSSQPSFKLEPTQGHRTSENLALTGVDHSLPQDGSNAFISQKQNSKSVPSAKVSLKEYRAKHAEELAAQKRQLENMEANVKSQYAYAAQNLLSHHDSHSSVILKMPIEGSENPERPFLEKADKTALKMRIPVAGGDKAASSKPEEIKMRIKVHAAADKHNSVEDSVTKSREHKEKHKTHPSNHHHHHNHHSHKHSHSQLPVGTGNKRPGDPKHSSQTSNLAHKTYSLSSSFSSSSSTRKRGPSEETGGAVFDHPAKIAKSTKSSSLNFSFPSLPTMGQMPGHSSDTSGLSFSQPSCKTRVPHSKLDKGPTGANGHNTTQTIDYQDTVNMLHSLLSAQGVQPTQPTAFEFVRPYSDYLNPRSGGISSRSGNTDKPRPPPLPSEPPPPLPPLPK
Sequence of CDK3/CycE1 (Q00526 whole entry, species assumed): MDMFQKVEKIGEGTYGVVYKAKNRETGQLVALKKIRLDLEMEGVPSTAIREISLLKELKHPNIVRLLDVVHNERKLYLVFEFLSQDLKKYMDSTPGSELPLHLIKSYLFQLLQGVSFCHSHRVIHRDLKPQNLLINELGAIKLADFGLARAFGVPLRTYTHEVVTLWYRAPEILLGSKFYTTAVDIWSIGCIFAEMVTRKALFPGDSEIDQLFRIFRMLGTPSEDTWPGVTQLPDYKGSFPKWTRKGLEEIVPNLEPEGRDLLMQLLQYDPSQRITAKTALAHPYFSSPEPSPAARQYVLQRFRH
Sequence of CDK3/CycE1 (P24864 whole entry partner, species assumed): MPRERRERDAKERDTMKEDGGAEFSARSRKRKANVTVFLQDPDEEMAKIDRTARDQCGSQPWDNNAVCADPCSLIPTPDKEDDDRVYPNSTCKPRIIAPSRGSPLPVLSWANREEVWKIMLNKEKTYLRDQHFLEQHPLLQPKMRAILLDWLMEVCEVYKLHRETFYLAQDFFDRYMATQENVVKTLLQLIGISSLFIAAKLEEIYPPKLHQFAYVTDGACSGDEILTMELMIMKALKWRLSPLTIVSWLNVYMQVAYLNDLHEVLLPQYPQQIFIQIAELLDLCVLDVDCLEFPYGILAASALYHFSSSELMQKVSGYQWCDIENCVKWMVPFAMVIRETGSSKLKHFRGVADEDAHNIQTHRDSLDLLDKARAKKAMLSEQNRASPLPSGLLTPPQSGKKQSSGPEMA
Sequence of CDK1/CycE1 (P06493 whole entry, species assumed): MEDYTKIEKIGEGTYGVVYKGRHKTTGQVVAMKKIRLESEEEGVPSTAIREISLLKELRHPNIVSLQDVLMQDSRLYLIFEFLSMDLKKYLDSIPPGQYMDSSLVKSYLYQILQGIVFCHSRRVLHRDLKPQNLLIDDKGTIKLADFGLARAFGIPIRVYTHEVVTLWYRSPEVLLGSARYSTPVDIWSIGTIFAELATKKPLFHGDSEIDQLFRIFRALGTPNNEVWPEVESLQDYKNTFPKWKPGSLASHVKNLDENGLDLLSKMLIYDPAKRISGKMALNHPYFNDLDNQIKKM
Sequence of CDK1/CycE1 (P24864 whole entry partner, species assumed): as the sequence (P24864 whole entry partner, species assumed) above
Sequence of CDK5/p25NCK (Q00535 whole entry, species assumed): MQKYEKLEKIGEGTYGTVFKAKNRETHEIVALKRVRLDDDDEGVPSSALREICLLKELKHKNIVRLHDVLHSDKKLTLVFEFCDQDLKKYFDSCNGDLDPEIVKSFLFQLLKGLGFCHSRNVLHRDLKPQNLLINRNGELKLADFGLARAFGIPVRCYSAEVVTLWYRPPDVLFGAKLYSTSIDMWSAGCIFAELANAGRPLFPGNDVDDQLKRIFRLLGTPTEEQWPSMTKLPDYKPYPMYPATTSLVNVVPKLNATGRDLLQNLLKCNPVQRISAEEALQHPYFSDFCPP
Sequence of CDK5/p25NCK (Q15078 99-307 partner limits assumed, species assumed): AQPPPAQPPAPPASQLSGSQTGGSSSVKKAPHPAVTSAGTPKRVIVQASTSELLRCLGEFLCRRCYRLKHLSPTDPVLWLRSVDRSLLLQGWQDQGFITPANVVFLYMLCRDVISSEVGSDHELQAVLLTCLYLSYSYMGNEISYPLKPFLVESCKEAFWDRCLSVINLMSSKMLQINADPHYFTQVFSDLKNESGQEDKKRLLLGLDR

CC(=O)N[C@@H]1CCC[C@H](C(=O)Nc2cc3c(NC(C)C)nc(CCO)cc3cn2)C1 [Compound 14, (1S,3R)-3-acetamido-N-(7-(2-hydroxyethyl)-5-(isopropylamino)-2,6-naphthyridin-3-yl)cyclohexane-1-carboxamide]
IC50 (CDK2/CycA2): 284 nM | IC50 (CDK3/CycE1): 91 nM | IC50 (CDK5/p25NCK): 187 nM | IC50 (CDK9/CycT1): 11 nM

CC(=O)N1CCC[C@H](C(=O)Nc2cc3c(NC(C)C)nc(C#N)cc3cn2)C1 [Compound 24, (S)-1-acetyl-N-(7-cyano-5-(isopropylamino)-2,6-naphthyridin-3-yl)piperidine-3-carboxamide]
IC50 (CDK2/CycA2): 3340 nM | IC50 (CDK3/CycE1): 862 nM | IC50 (CDK5/p25NCK): 5340 nM | IC50 (CDK9/CycT1): 26 nM

CC(C)Nc1nc(C#N)cc2cnc(N[C@H]3CC[C@@H](N)C3)cc12 [Compound 29, 7-(((1S,3R)-3-aminocyclopentyl)amino)-1-(isopropylamino)-2,6-naphthyridine-3-carbonitrile]
IC50 (CDK2/CycA2): 514 nM | IC50 (CDK3/CycE1): 1210 nM | IC50 (CDK5/p25NCK): 461 nM | IC50 (CDK9/CycT1): 4 nM

CC(C)(C)Nc1nc(C#N)cc2cnc(N[C@H]3CC[C@H](N)C3)cc12 [Compound 34, 7-(((1S,3S)-3-aminocyclopentyl)amino)-1-(tert-butylamino)-2,6-naphthyridine-3-carbonitrile]
IC50 (CDK2/CycA2): 128 nM | IC50 (CDK3/CycE1): 137 nM | IC50 (CDK5/p25NCK): 238 nM | IC50 (CDK9/CycT1): 2 nM

CC(C)(C)Nc1nc(C#N)cc2cnc(N[C@H]3CC[C@H](O)C3)cc12 [Compound 35, 1-(tert-butylamino)-7-(((1S,3S)-3hydroxycyclopentyl)amino)-2,6-naphthyridine-3-carbonitrile]
IC50 (CDK2/CycA2): 14 nM | IC50 (CDK3/CycE1): 35 nM | IC50 (CDK5/p25NCK): 36 nM | IC50 (CDK9/CycT1): 1 nM

CC(C)Nc1nc(C#N)cc2cnc(N[C@H]3CCCNC3)cc12 [Compound 38, (S)-1-(isopropylamino)-7-(piperidin-3-ylamino)-2,6-naphthyridine-3-carbonitrile]
IC50 (CDK1/CycE1): 83 nM | IC50 (CDK2/CycA2): 110 nM | IC50 (CDK3/CycE1): 66 nM | IC50 (CDK5/p25NCK): 103 nM | IC50 (CDK9/CycT1): 2 nM

CC(C)Nc1nc(C#N)cc2cnc(N[C@@H]3CCCNC3)cc12 [Compound 39, (R)-1-(isopropylamino)-7-(piperidin-3-ylamino)-2,6-naphthyridine-3-carbonitrile]
IC50 (CDK2/CycA2): 84 nM | IC50 (CDK3/CycE1): 278 nM | IC50 (CDK5/p25NCK): 161 nM | IC50 (CDK9/CycT1): 2 nM

CC(C)Nc1nc(C#N)cc2cnc(N[C@@H]3CNCC(F)(F)C3)cc12 [Compound 43, (S)-7-((5,5-difluoropiperidin-3-yl)amino)-1-(isopropylamino)-2,6-naphthyridine-3-carbonitrile]
IC50 (CDK2/CycA2): 13 nM | IC50 (CDK3/CycE1): 75 nM | IC50 (CDK5/p25NCK): 23 nM | IC50 (CDK9/CycT1): 2 nM

CC(C)Nc1nc(C#N)cc2cnc(N[C@@H]3CN4CCC3CC4)cc12 [Compound 44, (S)-1-(isopropylamino)-7-(quinuclidin-3-ylamino)-2,6-naphthyridine-3-carbonitrile]
IC50 (CDK2/CycA2): 1170 nM | IC50 (CDK3/CycE1): 288 nM | IC50 (CDK5/p25NCK): 3630 nM | IC50 (CDK9/CycT1): 2 nM

CCC(CC)Nc1nc(C#N)cc2cnc(N[C@H]3CC[C@H](N)C3)cc12 [Compound 48, 7-(((1S,3S)-3-aminocyclopentyl)amino)-1-(pentan-3-ylamino)-2,6-naphthyridine-3-carbonitrile]
IC50 (CDK2/CycA2): 199 nM | IC50 (CDK3/CycE1): 477 nM | IC50 (CDK5/p25NCK): 266 nM | IC50 (CDK9/CycT1): 2 nM

N#Cc1cc2cnc(N[C@H]3CC[C@H](N)C3)cc2c(NC2CCCC2)n1 [Compound 49, 7-(((1S,3S)-3-aminocyclopentyl)amino)-1-(cyclopentylamino)-2,6-naphthyridine-3-carbonitrile]
IC50 (CDK2/CycA2): 57 nM | IC50 (CDK3/CycE1): 105 nM | IC50 (CDK5/p25NCK): 93 nM | IC50 (CDK9/CycT1): 2 nM

CC1(Nc2nc(C#N)cc3cnc(N[C@H]4CC[C@H](N)C4)cc23)CC1 [Compound 50, 7-(((1S,3S)-3-aminocyclopentyl)amino)-1-((1-methylcyclopropyl)amino)-2,6-naphthyridine-3-carbonitrile]
IC50 (CDK2/CycA2): 73 nM | IC50 (CDK3/CycE1): 208 nM | IC50 (CDK5/p25NCK): 119 nM | IC50 (CDK9/CycT1): 2 nM

CC(C)Oc1nc(C#N)cc2cnc(N[C@H]3CC[C@H](N)C3)cc12 [Compound 51, 7-(((1S,3S)-3-aminocyclopentyl)amino)-1-isopropoxy-2,6-naphthyridine-3-carbonitrile]
IC50 (CDK2/CycA2): 73 nM | IC50 (CDK3/CycE1): 88 nM | IC50 (CDK5/p25NCK): 142 nM | IC50 (CDK9/CycT1): 1 nM

CC(C)Nc1nc(C(F)F)cc2cnc(N[C@H]3CCCNC3)cc12 [Compound 54, (S)-3-(difluoromethyl)-N^1-isopropyl-N^7-(piperidin-3-yl)-2,6-naphthyridine-1,7-diamine]
IC50 (CDK2/CycA2): 15 nM | IC50 (CDK3/CycE1): 14 nM | IC50 (CDK5/p25NCK): 10 nM | IC50 (CDK9/CycT1): 1 nM

N#Cc1cc2cnc(N[C@H]3CC[C@H](N)C3)cc2c(NCC2(C#N)CCOCC2)n1 [Compound 60, 7-(((1S,3S)-3-aminocyclopentyl)amino)-1-(((4-cyanotetrahydro-2H-pyran-4-yl)methyl)amino)-2,6-naphthyridine-3-carbonitrile]
IC50 (CDK2/CycA2): 1810 nM | IC50 (CDK3/CycE1): ≥ 12100 nM | IC50 (CDK5/p25NCK): 8390 nM | IC50 (CDK9/CycT1): 29 nM

CC(Nc1nc(C#N)cc2cnc(N[C@H]3CCCNC3)cc12)C(F)(F)F (stereo partly drawn) [Compound 61, 7-(((S)-piperidin-3-yl)amino)-1-((1,1,1-trifluoropropan-2-yl)amino)-2,6-naphthyridine-3-carbonitrile]
IC50 (CDK1/CycE1): 173 nM | IC50 (CDK2/CycA2): 227 nM | IC50 (CDK3/CycE1): 124 nM | IC50 (CDK5/p25NCK): 484 nM | IC50 (CDK9/CycT1): 3 nM

CC(C)Nc1nc(C#N)cc2cnc(N[C@H]3CC[C@H](C)NC3)cc12 [Compound 103, 1-(isopropylamino)-7-(((3S,6S)-6-methylpiperidin-3-yl)amino)-2,6-naphthyridine-3-carbonitrile]
IC50 (CDK1/CycE1): 206 nM | IC50 (CDK2/CycA2): 167 nM | IC50 (CDK3/CycE1): 398 nM | IC50 (CDK5/p25NCK): 294 nM | IC50 (CDK9/CycT1): 3 nM

N#Cc1cc2cnc(N[C@H]3CCCNC3)cc2c(N[C@H](CO)c2ccccc2)n1 [Compound 104, 1-(((S)-2-hydroxy-1-phenylethyl)amino)-7-(((S)-piperidin-3-yl)amino)-2,6-naphthyridine-3-carbonitrile]
IC50 (CDK2/CycA2): 888 nM | IC50 (CDK3/CycE1): 550 nM | IC50 (CDK5/p25NCK): 2200 nM | IC50 (CDK9/CycT1): 10 nM

CC(C)Nc1nc(C#N)cc2cnc(N[C@H]3CCCOC3)nc12 [Compound 116, (S)-8-(isopropylamino)-2-((tetrahydro-2H-pyran-3-yl)amino)pyrido[3,4-d]pyrimidine-6-carbonitrile]
IC50 (CDK1/CycE1): 114 nM | IC50 (CDK2/CycA2): 29 nM | IC50 (CDK3/CycE1): 92 nM | IC50 (CDK5/p25NCK): 63 nM | IC50 (CDK9/CycT1): 2 nM

CC(C)Nc1nc(C#N)cc2cnc(N[C@H]3CC[C@H](O)C3)nc12 [Compound 122, 2-(((1S,3S)-3-hydroxycyclopentyl)amino)-8-(isopropylamino)pyrido[3,4-d]pyrimidine-6-carbonitrile]
IC50 (CDK1/CycE1): 3 nM | IC50 (CDK2/CycA2): 6 nM | IC50 (CDK3/CycE1): 8 nM | IC50 (CDK5/p25NCK): 17 nM | IC50 (CDK9/CycT1): 1 nM

CC(C)Nc1nc(C#N)cc2cnc(N[C@H]3C[C@@H](N)C3)nc12 [Compound 126, 2-(((1s,3s)-3-aminocyclobutyl)amino)-8-(isopropylamino)pyrido[3,4-d]pyrimidine-6-carbonitrile]
IC50 (CDK1/CycE1): 95 nM | IC50 (CDK2/CycA2): 181 nM | IC50 (CDK3/CycE1): 287 nM | IC50 (CDK5/p25NCK): 238 nM | IC50 (CDK9/CycT1): 2 nM

CC(C)Nc1nc(C#N)cc2cnc(N[C@H]3C[C@H](N)C3)nc12 [Compound 127, 2-(((1r,3r)-3-aminocyclobutyl)amino)-8-(isopropylamino)pyrido[3,4-d]pyrimidine-6-carbonitrile]
IC50 (CDK1/CycE1): 10 nM | IC50 (CDK2/CycA2): 14 nM | IC50 (CDK3/CycE1): 8 nM | IC50 (CDK5/p25NCK): 46 nM | IC50 (CDK9/CycT1): 1 nM

CC(C)Nc1nc(C#N)cc2cnc(NC34CC(N)(C3)C4)nc12 [Compound 128, 2-((3-aminobicyclo[1.1.1]pentan-1-yl)amino)-8-(isopropylamino)pyrido[3,4-d]pyrimidine-6-carbonitrile]
IC50 (CDK1/CycE1): 43 nM | IC50 (CDK2/CycA2): 54 nM | IC50 (CDK3/CycE1): 34 nM | IC50 (CDK5/p25NCK): 65 nM | IC50 (CDK9/CycT1): 2 nM
